Assay results taken from patent US10888530B2, “Implantable drug delivery compositions and methods of use thereof” (AcuityBio Corporation, priority 2015, dated 2021).

How the values were obtained:
[1] = Paclitaxel analysis in rabbit lung implant study (blood, pleural fluid, lung tissue); type: in vivo
Description: An incision at the 8th intercostal space was made into the thorax of anesthetized rabbits. The Caudal lobe was partially released from the underlying ligament. Implants were affixed as a sandwich at the apical end of a resected caudal lobe. In all cases, 2 implants top & bottom were preloaded onto a 30 mm GIA stapler. Stapling and resection were performed using a 30 mm GIA stapler. Animals were sutured, air was removed from the thorax and the wound covered. […] A general schematic of the reset procedure is provided by FIG. 13A-D. For example, the stapler jaws (with the implant) are positioned to grasp the tissue (FIG. 13A). Staples are then deployed through the implant securing it to the tissue at the same time as the internal blade bisects the stapled tissue (FIG. 13B). The now bisected implant is released from the stapler. The resected tissue is removed.

[2] = Therapeutic concentration range for paclitaxel

concentration at 14 days ([1]; blood and tissues outside the thorax, rabbit, day 14): < 0.5 ng/mL
Paclitaxel level in pleural fluid ([1]; paclitaxel coated buttress implants): 10 to 100 nM
Paclitaxel concentration in blood (below quantifiable limits) ([1]; rabbit, 2 days, 7 days and terminally at 14 days): < 500 pg/mL
IC90 [2]: ~50 nM
IC90 (therapeutic concentration range) [2]: about 42.5 ng/ml
SMILES: CC(=O)O[C@H]1C(=O)[C@@]2(C)[C@H]([C@H](OC(=O)c3ccccc3)[C@]3(O)C[C@H](OC(=O)[C@H](O)[C@@H](NC(=O)c4ccccc4)c4ccccc4)C(C)=C1C3(C)C)[C@]1(OC(C)=O)CO[C@@H]1C[C@@H]2O [paclitaxel]
